Converted amounts (≈) assume the structure as drawn.
Tests used:
Format in all cases: functional
Nakaseomyces glabratus = assay: Anti-fungal activity against Candida glabrata A28790 (WT)
Candida albicans [1] = assay: Anti-fungal activity against Candida albicans A28660 (WT)
Candida albicans [2] = assay: Anti-fungal activity against Candida albicans A28235 (WT)

MIC (Nakaseomyces glabratus) | MIC (Candida albicans [1]) | MIC (Candida albicans [2]) | Structure (SMILES)
> 128 µg/mL | 64 µg/mL (≈ 148 µM) | 32 µg/mL (≈ 74 µM) | CCCCCCOCC12C[C@@H]3[C@H](C)[C@@H](O)C[C@H]3C3(C=O)CC1C=C(C(C)C)[C@@]23C(=O)O
64 µg/mL (≈ 129 µM) | 32 µg/mL (≈ 64.3 µM) | 32 µg/mL (≈ 64.3 µM) | CCCCCCOCC12C[C@@]34[C@@H](CC[C@]3(C)C4(Cl)Cl)C3(C=O)CC1C=C(C(C)C)[C@@]23C(=O)O
0.125 µg/mL (≈ 0.3 µM) | 0.06 µg/mL (≈ 0.144 µM) | 0.06 µg/mL (≈ 0.144 µM) | CCCCCCOCC12C[C@@H]3[C@H](C)CC[C@H]3C3(C=O)CC1C=C(C(C)C)[C@@]23C(=O)O
8 µg/mL (≈ 19.3 µM) | 0.5 µg/mL (≈ 1.21 µM) | 0.125 µg/mL (≈ 0.302 µM) | CCCCCCOCC12CC3=C(C)CC[C@H]3C3(C=O)CC1C=C(C(C)C)[C@@]23C(=O)O
32 µg/mL (≈ 74.3 µM) | 8 µg/mL (≈ 18.6 µM) | 4 µg/mL (≈ 9.29 µM) | CCCCCCOCC12C[C@@H]3[C@H](C)C(=O)C[C@H]3C3(C=O)CC1C=C(C(C)C)[C@@]23C(=O)O
1 µg/mL (≈ 2.3 µM) | 0.5 µg/mL (≈ 1.15 µM) | 0.25 µg/mL (≈ 0.575 µM) | CCCCCCOCC12C[C@@H]3[C@H](C)[C@H](F)C[C@H]3C3(C=O)CC1C=C(C(C)C)[C@@]23C(=O)O
32 µg/mL (≈ 74 µM) | 8 µg/mL (≈ 18.5 µM) | 4 µg/mL (≈ 9.25 µM) | CCCCCCOCC12C[C@H]3[C@@H](CC[C@]3(C)O)C3(C=O)CC1C=C(C(C)C)[C@@]23C(=O)O
> 128 µg/mL | – | 16 µg/mL (≈ 32.5 µM) | COC1C(O)[C@H](O)[C@H](OC[C@@]23C[C@@H]4[C@H](C)CC[C@H]4[C@@]4(C=O)CC2C=C(C(C)C)[C@@]34C(=O)O)O[C@@H]1C (single isomer, unassigned) [SORDARIN]

Source: ChEMBL document CHEMBL1134983, “Core-modified sordaricin derivatives: synthesis and antifungal activity” (2002)
